The source of these data is patent US20120029037A1, “ANIMAL ECTOPARASITE-CONTROLLING AGENT” (SUMITOMO CHEMICAL COMPANY, LIMITED, priority 2010, published 2012).

Usually mortality stands for the percentage killed. A low value points to a weak lethal effect.

What all share (assay type): in vivo
Test [1] deals with Ticks (Haemaphysalis longicornis). Description: Pesticidal activity on ticks in filter paper test. The note with it: 48 h, 100 mg/m^2, non-blood-fed young ticks, 2 days later. The protocol: Pesticidal Activity on Ticks (Haemaphysalis longicornis) in Filter Paper Test
Each (5 mg) of the present hydrazide compounds (5), (8), (11) and (12) was dissolved in acetone (10 mL), and this acetone solution (1 mL) was uniformly applied onto one side of a filter paper (TOYO No. 2; 5×10 cm; the surface area of the filter paper was 50 cm^2, and thus the amount of the present hydrazide compound applied was 100 mg/m^2). After drying, said filter paper was folded, and the both sides of the paper were clipped to form a bag. Into this bag, test ticks (Haemaphysalis longicornis, non-blood-fed young ticks, 10 ticks/group) were added, and the opening was clipped to seal the bag. Two (2) days later, the number of dead ticks was examined and the mortality was calculated by the following formula:
Mortality (%)=100×(number of dead ticks/number of ticks tested)

Test [2] deals with Mouse-infested cat fleas (Ctenocephalides felis). Kind of test: Oral administration against mouse-infested cat fleas. The note with it: 20 mg in 10 mL test solution at 10 mL per 1 kg body weight, 2 days later. How it is done: Oral Administration Against Mouse-Infested Cat Fleas (Ctenocephalides felis)
The present hydrazide compound (5) (20 mg) was dissolved in dimethylformamide (680 mg), and thereto pure water or a corn oil was added to prepare a test solution (10 mL). Said test solution was orally administered to the mouse at a rate of 10 mL per 1 kg of the body weight of the mouse with a gastric sonde. To a control group, a 7% dimethylformamide/corn oil solution alone was orally administered. Each administration was repeated 3 times per group.
After the oral administration, 20 cat fleas were deposited on each mouse. Two (2) days later, the number of cat fleas was examined and the mortality was calculated by the following formula:
(§1) Mortality (%)=100×(number of dead cat fleas/number of cat fleas tested)

The test system of test [3] is Mouse-infested ticks (Haemaphysalis longicornis). Kind of test: Dropping application against mouse-infested ticks. Conditions: 0.1% w/v solution 200 μL dropwise to whole body surface, 2 days after application. The protocol:
Propping Application Against Mouse-Infested Ticks (Haemaphysalis longicornis)
The previous day before dropping application, 30 test ticks (Haemaphysalis longicornis, young ticks) were deposited on a mouse. Before the dropping application, uninfested ticks were removed.
The present hydrazide compound (5) (5 mg) was dissolved in a mixture (5 mL) of propylene carbonate and diethylene glycol monoethyl ether in equal amounts to prepare a 0.1% w/v solution. Said solution (200 μL) was applied dropwise to the whole body surface of a mouse with a pipette. To a control group, the mixture (200 μL) alone was applied. Each application was repeated 3 times per group.
Two (2) days after the application, the number of dead ticks was examined and the mortality was calculated by the following formula:
Mortality (%)=100×(number of dead ticks/infested ticks before dropping application)

Test [4] deals with Cat-infested cat fleas (Ctenocephalides felis). Description: Dropping application against cat-infested cat fleas. Conditions: dropping on skin; for Flea control rates (%) at 2 days after the application: vs infestation before application; for Flea control rates (%) at 16 days after the application: vs placebo group. The protocol: Propping Application Against Cat-Infested Cat Fleas (Ctenocephalides felis)
The previous day before dropping application, 50 test fleas (cat flea adults) were deposited on a cat. Before the dropping application, infested fleas were counted.
The present hydrazide compound (5) (0.75 g or 1.5 g) was dissolved in diethylene glycol monoethyl ether (6.0 g) to prepare a test solution. Said test solution was directly dropped on the skin of the neck and back of the cat while pushing aside fur thereon on at a rate of 0.1 ml per 1 kg of the cat's body weight (dose amount: 10 or 20 mg/kg). This is referred to as a test group. On the other hand, diethylene glycol monoethyl ether alone was applied dropwise to a placebo group.
Two (2) days after the application, the number of living fleas, which were infesting the cats, was examined. When the examination was completed, all infested fleas were removed from the cats.
Fourteen (14) days later, 50 test fleas were re-deposited on each cat. Two (2) days after the re-deposit, the number of living fleas, which were infesting the cats, was examined. When the examination was completed, all infested fleas were removed from the cats. The infestation rate and control rate were calculated by the following formulae: […]
(i) Method of calculating infestation rate and control rate at the initial stage (2 days) after the application:
Infestation rate (%) at X days after application=(number of living fleas at X days/number of living fleas before application)×100
Control rate (%) at X days after application=(infestation rate of test group before application−infestation rate of test group at X days)/infestation rate of test group before application×100
(ii) Method of calculating infestation rate and control rate at 16 days after the application:
Infestation rate (%) at X days after application=(number of living fleas at X days/number of fleas deposited)×100
Control rate (%) at X days after application=(infestation rate of placebo group at X days−infestation rate of test group at X days)/infestation rate of placebo group at X days×100
(§2) In addition, if an infestation rate of a test group is higher than a placebo group, then the control rate is deemed to be 0%.

For test [5], the system named is Dog-infested ticks (Haemaphysalis longicornis). Description: Dropping application against dog-infested ticks. Conditions: dropping on skin, 16 days after application, vs placebo group. How it is done: Propping Application Against Dog-Infested Ticks (Haemaphysalis longicornis)
The present hydrazide compound (5) (0.75 or 1.5 g) was dissolved in diethylene glycol monoethyl ether (6.0 g) to prepare a test solution. Said test solution was directly dropped on the skin of the neck and back of the dog while pushing aside fur thereon at a rate of 0.1 ml per 1 kg of the dog's body weight (dose amount: 10 or 20 mg/kg). This is referred to as a test group. On the other hand, diethylene glycol monoethyl ether alone was applied dropwise to a placebo group.
Fourteen (14) days later, 100 test ticks were deposited on each dog. Two (2) days after the deposit, the number of living ticks, which were infesting the dogs, was examined. When the examination was completed, all infested ticks were removed from the dogs. The infestation rate and control rate were calculated by the following formulae: […]
Method of calculating infestation rate and control rate at 16 days after the application:
Infestation rate (%) at X days after application=(number of living ticks at X days/number of ticks deposited)×100
Control rate (%) at X days after the application=(infestation rate of placebo group at X days−infestation rate of test group at X days)/infestation rate of placebo group at X days×100
as §2

The subject of test [6] is Mouse-infested cat fleas (Ctenocephalides felis). Description: Dropping application against mouse-infested cat fleas. Conditions: 0.5% w/v solution 200 μL dropwise along dorsal line, 2 days later. How it is done: Propping Application Against Mouse-Infested Cat Fleas (Ctenocephalides felis)
The present hydrazide compound (5) (25 mg) was dissolved in propylene carbonate (5 mL) to prepare a 0.5% w/v solution. Said solution (200 μL) was applied dropwise along the dorsal line of a mouse with a pipette. To a control group, propylene carbonate (200 μL) alone was applied. Each application was repeated 3 times per group.
After the dropping application, 20 cat fleas were deposited on each mouse. Two (2) days later, the number of dead cat fleas was examined and the mortality was calculated by the following formula:
as §1

Test [7] concerns Mouse-infested ticks (Haemaphysalis longicornis). Description: Oral administration against mouse-infested ticks. Conditions: 20 mg in 10 mL test solution at 10 mL per 1 kg body weight, 2 days after administration. The protocol:
Oral Administration Against Mouse-Infested Ticks (Haemaphysalis longicornis)
The previous day before oral administration, 30 test ticks (Haemaphysalis longicornis, young ticks) were deposited on a mouse. Before the oral administration, uninfested ticks were removed.
The present hydrazide compound (5) (20 mg) was dissolved in dimethylformamide (680 mg), and thereto pure water or a corn oil was added to prepare a test solution (10 mL). Said test solution was orally administered to the mouse at the rate of 10 mL per 1 kg of the body weight of the mouse with a gastric sonde. To a control group, a 7% dimethylformamide/corn oil solution alone was orally administered. Each administration was repeated 3 times per group.
Two (2) days after the administration, the number of dead ticks was examined and the mortality was calculated by the following formula:
Mortality (%)=100×(number of dead ticks/infested ticks before oral administration)

`CC(C)(C)C(=O)NNc1cc(C2=NOC(c3cc(Cl)cc(Cl)c3)(C(F)(F)F)C2)ccc1Cl` (centres unmarked) [(8), N′-{5-[5-(3,5-dichlorophenyl)-5-trifluoromethyl-4,5-dihydroisoxazol-3-yl]-2-chlorophenyl}pivalohydrazide]: the mortality at 100 mg/m2 in test [1] was no less than 90%.
Take `CCCCC(=O)NNc1cc(C2=NOC(c3cc(Cl)cc(Cl)c3)(C(F)(F)F)C2)ccc1Cl` (centres unmarked) [(11), N′-{5-[5-(3,5-dichlorophenyl)-5-trifluoromethyl-4,5-dihydroisoxazol-3-yl]-2-chlorophenyl}pentanohydrazide]: the mortality at 100 mg/m2 in test [1] was no less than 90%.
In test [1], `CCCCCC(=O)NNc1cc(C2=NOC(c3cc(Cl)cc(Cl)c3)(C(F)(F)F)C2)ccc1Cl` (centres unmarked) [(12), N′-{5-[5-(3,5-dichlorophenyl)-5-trifluoromethyl-4,5-dihydroisoxazol-3-yl]-2-chlorophenyl}hexanohydrazide] had a mortality at 100 mg/m2 of no less than 90%.
In the case of `CC(C)CC(=O)NNc1cc(C2=NOC(c3cc(Cl)cc(Cl)c3)(C(F)(F)F)C2)ccc1Cl` (centres unmarked) [Compound (5), N′-{2-chloro-5-[5-(3,5-dichlorophenyl)-5-trifluoromethyl-4,5-dihydroisoxazol-3-yl]phenyl}isovalerohydrazide], the Mortality in test [2] is given as no less than 90%; in test [3], no less than 70%; in test [6] it was no less than 70%; in test [7], no less than 90%. Further, the “Flea control rates (%) at 2 days after the application” value in test [4] (dose 10 mg/kg) came out at 83%; in test [4] (dose 20 mg/kg) it was 92%. Also, the “Flea control rates (%) at 16 days after the application” value in test [4] (dose 10 mg/kg) is on record as 92%; in test [4] (dose 20 mg/kg) it was 95%. The entries for the “Tick control rates (%) at 16 days after the application” value in test [5] (dose 10 mg/kg) and in test [5] (dose 20 mg/kg) were 93% and 100%, respectively. Further, in test [1], the mortality at 100 mg/m2 is no less than 90%.
